According to US20230416712A1, “APPLICATION OF SUBSTANCE THAT REDUCES THE CONTENT OR ACTIVITY OF KAT7 IN PREVENTING SENESCENCE AND TREATING HEPATIC FIBROSIS” (INSTITUTE OF ZOOLOGY, CHINESE ACADEMY OF SCIENCES, priority 2020, published 2023):

What was measured:
[1] = tested on: WS mesenchymal precursor cells (WS hMPCs); assay: Senescence of WS hMPCs treated with KAT7 inhibitor; assay type: cell-based, human; conditions: 50 nM; passages 2-3 after treatment; DMSO control; FIGS. 6C-6D
Protocol: Passage-4 WS mesenchymal precursor cells (WS hMPCs) in example 1 were used as test cells, and the cells were treated with a DMSO solution of 50 nM of WM-3835. The WM-3835 (with a structural formula as shown in a of FIGS. 6A-6I) was synthesized by entrusting WuXi AppTec, and a DMSO solvent was used as a control.
After the treatment, the cells were continuously passaged to passages 2-3. The cells were collected to detect a KAT7 protein knockdown efficiency (FIG. 6B), and SA-β-gal staining of cell senescence markers and detection of a cell proliferation molecular marker (Ki67) were performed.

[2] = tested on: Human primary hepatocytes (hHEPs); assay: Senescence of human primary hepatocytes treated with KAT7 inhibitor; assay type: cell-based; conditions: 100 nM
Protocol: Human primary hepatocytes (hHEPs) were used as test cells (a product of Lonza, with an article No. of HUCPI), and the cells were treated with a DMSO solution of 100 nM of WM-3835, and DMSO was used as a control.

Cc1cc(-c2ccccc2)cc(C(=O)NNS(=O)(=O)c2cccc(O)c2)c1F [WM-3835]
senescence of WS hMPCs (SA-β-gal staining, Ki67) [1]: can delay the senescence of WS hMPCs
expressions of inflammatory genes and SASP-associated genes (RNA-seq) ([2]; FIGS. 6E-6I): down-regulated
expressions of metabolism-related genes (RNA-seq) ([2]; FIGS. 6E-6I): up-regulated
senescence of hepatocytes (P15, IL6 by RT-qPCR) ([2]; cultured 8 d, compared with DMSO group): significantly delay the senescence of hepatocytes
